From patent US11234939B2, “Dosage forms comprising a plasma kallikrein inhibitor” (KALVISTA PHARMACEUTICALS LIMITED, priority 2017, dated 2022) come the findings set out here.

One data set addresses T1, Human KLK1 (Homo sapiens, UniProt P06870).
T1 construct: purchased Callbiochem
Put plainly: Determination of the IC50 for KLK1. Format: biochemical. The conditions noted are these: 25° C., substrate H-DVal-Leu-Arg-AFC. On the procedure: KLK1 inhibitory activity in vitro was determined using standard published methods (see e.g. Johansen et al., Int. J. Tiss. Reac. 1986, 8, 185; Shori et al., Biochem. Pharmacol., 1992, 43, 1209; Stürzebecher et al., Biol. Chem. Hoppe-Seyler, 1992, 373, 1025). Human KLK1 (Callbiochem) was incubated at 25° C. with the fluorogenic substrate H-DVal-Leu-Arg-AFC and various concentrations of the test compound. Residual enzyme activity (initial rate of reaction) was determined by measuring the change in optical absorbance at 410 nm and the IC50 value for the test compound was determined.

Another data set addresses T2, Human FXIa (Homo sapiens, UniProt P03951).
T2 construct: purchased Enzyme Research Laboratories
Put plainly: Determination of the % Inhibition for FXIa. The format is biochemical. The conditions noted are these: 40 μM test compound, 25° C. As to the method: FXIa inhibitory activity in vitro was determined using standard published methods (see e.g. Johansen et al., Int. J. Tiss. Reac. 1986, 8, 185; Shori et al., Biochem. Pharmacol., 1992, 43, 1209; Sturzebecher et al., Biol. Chem. Hoppe-Seyler, 1992, 373, 1025). Human FXIa (Enzyme Research Laboratories) was incubated at 25° C. with the fluorogenic substrate Z-Gly-Pro-Arg-AFC and 40 μM of the test compound. Residual enzyme activity (initial rate of reaction) was determined by measuring the change in optical absorbance at 410 nm.

A short description of data set [1]: Pharmacokinetic study, single oral dose in rats. Format: in vivo. To be noted: male, Sprague-Dawley, plasma; rat, po 10.1 mg/kg, vehicle TPGS solution (20% aq. w/v). As to the method:
A pharmacokinetic study of the compound of Formula A was performed to assess the pharmacokinetics following a single oral dose in male Sprague-Dawley rats. Two rats were given a single po dose of 5 mL/kg of a nominal 2 mg/mL (10 mg/kg) composition of test compound in vehicle. Following dosing, blood samples were collected over a period of […]. Sample times were 5, 15 and 30 minutes then 1, 2, 4, 6, 8 and 12 hrs. Following collection, blood samples were centrifuged and the plasma fraction analysed for concentration of test compound by LCMS.

T2 sequence (P03951 388-625 limits assumed): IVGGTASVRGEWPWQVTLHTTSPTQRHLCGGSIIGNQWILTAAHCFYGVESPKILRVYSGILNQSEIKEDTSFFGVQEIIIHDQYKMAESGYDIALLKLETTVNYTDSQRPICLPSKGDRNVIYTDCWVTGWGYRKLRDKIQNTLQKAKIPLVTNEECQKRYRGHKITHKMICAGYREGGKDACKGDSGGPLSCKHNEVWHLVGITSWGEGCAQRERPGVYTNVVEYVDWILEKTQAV
T2 sequence (P03951 19-387 partner limits assumed): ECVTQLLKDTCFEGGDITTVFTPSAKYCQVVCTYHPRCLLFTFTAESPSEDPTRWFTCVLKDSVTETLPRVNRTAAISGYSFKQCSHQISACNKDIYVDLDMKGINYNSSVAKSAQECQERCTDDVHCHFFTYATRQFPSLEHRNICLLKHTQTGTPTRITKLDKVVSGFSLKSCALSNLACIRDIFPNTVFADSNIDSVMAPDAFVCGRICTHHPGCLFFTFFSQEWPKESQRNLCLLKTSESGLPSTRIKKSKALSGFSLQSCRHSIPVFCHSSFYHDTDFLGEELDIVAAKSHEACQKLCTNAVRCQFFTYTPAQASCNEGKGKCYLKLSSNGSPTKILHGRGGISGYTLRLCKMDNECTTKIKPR
T1 sequence (P06870 25-262): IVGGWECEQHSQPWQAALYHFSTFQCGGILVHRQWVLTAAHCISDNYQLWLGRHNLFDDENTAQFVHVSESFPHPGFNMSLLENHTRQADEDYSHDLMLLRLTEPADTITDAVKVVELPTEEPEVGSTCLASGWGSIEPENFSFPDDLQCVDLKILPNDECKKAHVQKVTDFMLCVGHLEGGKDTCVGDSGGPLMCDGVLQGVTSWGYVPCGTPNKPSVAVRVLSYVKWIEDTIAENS

What is called IC50 is the concentration at which inhibition is half-maximal. A high value points to lower potency. The term inhibition denotes the change of the read-out against control, counted positive when it falls. By Cmax is commonly meant the peak of the concentration-time curve. A word on the Tmax: it is the time from dosing to the highest level. With `COCc1nn(Cc2ccc(Cn3ccccc3=O)cc2)cc1C(=O)NCc1nccc(OC)c1F` [compound of Formula A, N-[(3-fluoro-4-methoxypyridin-2-yl)methyl]-3-(methoxymethyl)-1-({4-[(2-oxopyridin-1-yl)methyl]phenyl}methyl)pyrazole-4-carboxamide], at Human KLK1, the IC50 was over 40 µM. The same molecule yielded an inhibition at 40 µM against Human FXIa of 0%. Moreover, in data set [1], the highest level (Cmax) was 1940 ng/mL and the Tmax is 1.17 h.
